One experiment relates to WM115. Briefly: Cell viability (CellTiter-Blue, 72 h), WM115 melanoma cells. The note with it: Homo sapiens, WM-115, WM115, 1% FBS. Type of experiment: cell-based. As for the experimental part:
(§1) The following cell lines were tested in this example: Lung Cancer (A549, NCI-H460); Pancreatic cancer (PANC1, Mia-Pa-Ca-2); Melanoma (WM115, A375); Ovarian cancer (OVCAR3, SKOV3); Gastric cancer (MKN45, HGC-27); Renal cancer (ACHN) and Bladder Cancer (RT112).
(§2) Each tumour cell line was maintained in vitro in RPMI 1640+10% heat inactivated FBS and 2 mM L-glutamine (growth media) at 37° C. in 5% CO2 and humidified conditions. The cells were harvested, washed, re-suspended into growth medium and counted. The cells were re-suspended into assay media (RPMI 1640+5% heat inactivated FBS+ and 2 mM L-glutamine) at 4×10^4 cells/ml (dependent upon cell type) and plated into the middle 240 wells of 384 well tissue culture plates (Corning CellBind, black-wall plates) 25 μl/well aliquots; 50 μl of growth media was aliquoted into the outer wells. There were 3 plates for each cell line.
(§3) The plates were incubated overnight at 37° C., in 5% humidified CO2.
(§4) The phytocannabinoid test compounds were prepared in 100% DMSO vehicle at a stock concentration of 20 and 40 mM.
(§5) Starting with the 20 mM stock in DMSO, this was serially diluted (2 fold) in DMSO in a 96-well plate, to 20 (no dilution), 10, 5, 2.5, 1.25, 0.625, 0.315, 0.157 and […]. Following this, 10 ul of each compound dilution was diluted into 990 ul of 1% (v/v) FBS media in a deep well block making the final concentrations of 200, 100, 50, 25, 12.5, 6.25, 3.125, 1.56 and 0.79 μM (2× final assay concentrations and 1% DMSO).
(§6) An equal volume of each cannabinoid in the combination (stock concentration 40 mM) was mixed together to make a stock of 20 mM of each cannabinoid in DMSO. This was serially diluted (2 fold) in DMSO in a 96-well plate, to 20 (no dilution), 10, 5, 2.5, 1.25, 0.625, 0.315, 0.157 and […]. Following this, 10 ul of each combination dilution was diluted into 990 ul of 1% (v/v) FBS media in a deep well block making the final concentrations of 200, 100, 50, 25, 12.5, 6.25, 3.125, 1.56 and 0.79 μM (2× final assay concentrations and 1% DMSO).
Cisplatin (stock of 1 mg/ml=3.33 mM in water) was diluted in 1% FBS media to give a stock concentration of 1 mM. This was then diluted in 1% FBS media from the stock solution to 200 μM, then serially diluted (3-fold) in 1% FBS media to 200 (no dilution), 66.66, 22.22, 7.41, 2.47, 0.82, 0.27, 0.09, 0.03 μM (2× final assay concentrations; no DMSO).
(§7) The plates were incubated for 72 h at 37° C. in 5% humidified CO2. To develop the plates, at 72 h, 10 μl of CellTiter-Blue™ reagent was added to each test/blank well.
(§8) The plates were incubated at 37° C., 5% humidified CO2. Fluorescence was measured using a Flex II Station plate reader (570 nm excitation wavelength, 600 nm emission wavelength, 590 nm cut-off) after 3 h.
(§9) The phytocannabinoid compounds CBD, CBGA, CBG, CBDA, THCV and THC were tested on a panel of lung (A549, NCI-H460), pancreatic (PANC1, Mia-Pa-Ca-2), melanoma (WM115, A375), ovarian (OVCAR3, SKOV3), gastric (MKN45, HGC-27), renal (ACHN) and bladder (RT112) cancer cell lines according to the protocol for 72 h in media containing 1% FBS.
(§10) The IC50 values for each phytocannabinoid and combination of CBD with the other phytocannabinoids was calculated for each cell line. The raw data values expressed in relative fluorescent units were normalised to the vehicle for each individual plate and any reduction in fluorescence indicated a decrease in viability.
(§11) This calculation was as described in Example 1 above.
In general terms: Alamar Blue is a resazurin reagent that responds to reducing activity.

The next experiment relates to NCI-H460. Briefly: Cell viability (CellTiter-Blue, 72 h), NCI-H460 lung cancer cells. Type of experiment: cell-based. The following applies: Homo sapiens. On the procedure:
as §1, §2, §3, §4, §5, §6
Taxotere SOC was prepared in 100% DMSO to give a stock concentration of 10 mM. This was diluted in DMSO from the stock solution to 200 μM, then serially diluted (3-fold) in DMSO to 200 (no dilution), 66.66, 22.22, 7.41, 2.47, 0.82, 0.27, 0.09, 0.03 μM. 10 ul of each of the taxotere dilutions was diluted in 990 ul of 1% (v/v) FBS media making the final concentrations of 2, 0.67, 0.22, 0.074, 0.0247, 0.0082, 0.0027 0.0009, 0.0003 μM (2× final assay concentrations and 1% DMSO).
as §7, §8, §9, §10, §11

Setting [1] is: 72 h, read-out: Cell line IC50 value.
Where [2] appears, read: read-out: Dm (median effect dose).
The mark [3] stands for this setting: NCI-H460, 72 h, read-out: Cell line IC50 value.
The mark [4] stands for this setting: NCI-H460, read-out: Dm (median effect dose).

Molecules are shown by their SMILES. Read-outs that look alike come from different tables or passages of the source.

As to `C=C(C)[C@@H]1CCC(C)=C[C@H]1c1c(O)cc(CCCCC)cc1O` [CBD, Cannabidiol], the IC50 with WM115 (setting [1]) turned out to be 2.4 µM; with WM115 (setting [2]), 2.77 µM; in the experiment with NCI-H460 (setting [3]), 2.5 µM; in the experiment with NCI-H460 (setting [4]) it was 2.55 µM.
In the same order, the values of `C=C(C)[C@@H]1CCC(C)=C[C@H]1c1c(O)cc(CCCCC)c(C(=O)O)c1O` [CBDA, Cannabidiolic acid] are 2.1 µM, 14.7 µM, 7.3 µM and 6.6 µM.
Take `CCCCCc1cc(O)c(C/C=C(\C)CCC=C(C)C)c(O)c1` [CBG, Cannabigerol]: the IC50 was 3.1 µM with WM115 (setting [1]), 3.1 µM with WM115 (setting [2]), 4 µM in the experiment with NCI-H460 (setting [3]) and 3.96 µM in the experiment with NCI-H460 (setting [4]).
Consider `CCCCCc1cc(O)c(C/C=C(\C)CCC=C(C)C)c(O)c1C(=O)O` [CBGA, Cannabigerolic acid], for which the IC50 in the experiment with WM115 (setting [1]) was determined as 1.5 µM; in the experiment on WM115 (setting [2]) it was 12.9 µM; with NCI-H460 (setting [3]) it was 6.2 µM; with NCI-H460 (setting [4]), 4.03 µM.
With `CCCCCc1cc(O)c2c(c1)OC(C)(C)[C@@H]1CCC(C)=C[C@@H]21` [THC, Tetrahydrocannabinol, reference compound], the IC50 was determined as 2.9 µM in the experiment with WM115 (setting [1]), 3.17 µM in the experiment with WM115 (setting [2]), 3.8 µM in the experiment with NCI-H460 (setting [3]) and 3.28 µM in the experiment with NCI-H460 (setting [4]).
In the case of `CCCc1cc(O)c2c(c1)OC(C)(C)[C@@H]1CCC(C)=C[C@@H]21` [THCV, Tetrahydrocannabivarin], the IC50 in the experiment on WM115 (setting [1]) is 6.5 µM; with WM115 (setting [2]), 6.43 µM; in the experiment with NCI-H460 (setting [3]), 4.6 µM; in the experiment with NCI-H460 (setting [4]) it was 4.53 µM.
On to `CC(=O)O[C@@]12CO[C@@H]1C[C@H](O)[C@@]1(C)C(=O)[C@H](O)C3=C(C)[C@@H](OC(=O)[C@H](O)[C@@H](NC(=O)OC(C)(C)C)c4ccccc4)C[C@@](O)([C@@H](OC(=O)c4ccccc4)[C@H]21)C3(C)C` [Taxotere, Docetaxel, reference compound], for which the IC50 in the experiment with NCI-H460 (setting [3]) turned out to be 0.0011 µM.
